Calls of active or inactive are those of the source. The rule behind the calls is not given here.
Experiments:
[1] = Solubility of the compound in methanol/ethanol; assay type: physicochemical
[2] = Lipophilicity, log P of the compound; assay type: physicochemical; conditions: octanol/water; read-out: logP
[3] = Solubility of the compound in methanol; assay type: physicochemical
[4] = system: Pseudomonas aeruginosa; experiment: Antimicrobial activity against Pseudomonas aeruginosa MPAO1 infected in Caenorhabditis elegans assessed as prolongation of survival of infected worms; assay type: functional
[5] = target: T1, Biliverdin-producing heme oxygenase (Neisseria meningitidis, UniProt Q9AH50); experiment: Binding affinity to Neisseria meningitidis wild type apo heme oxygenase expressed in Escherichia coli BL21(DE3) pLysS by spectrofluorimetric analysis; conditions: read-out: Kd
T1 sequence (Q9AH50 whole entry): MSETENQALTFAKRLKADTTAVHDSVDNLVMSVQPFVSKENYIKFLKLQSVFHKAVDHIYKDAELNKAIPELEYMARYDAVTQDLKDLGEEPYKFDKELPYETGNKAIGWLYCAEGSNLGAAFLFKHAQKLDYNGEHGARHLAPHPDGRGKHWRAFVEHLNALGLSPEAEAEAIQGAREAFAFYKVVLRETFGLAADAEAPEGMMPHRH

[6] = target: T2, Heme oxygenase (Pseudomonas aeruginosa, UniProt O69002); experiment: Binding affinity to Pseudomonas aeruginosa MPAO1 wild type apo heme oxygenase by spectrofluorimetric analysis; conditions: read-out: Kd
T2 sequence (O69002 whole entry): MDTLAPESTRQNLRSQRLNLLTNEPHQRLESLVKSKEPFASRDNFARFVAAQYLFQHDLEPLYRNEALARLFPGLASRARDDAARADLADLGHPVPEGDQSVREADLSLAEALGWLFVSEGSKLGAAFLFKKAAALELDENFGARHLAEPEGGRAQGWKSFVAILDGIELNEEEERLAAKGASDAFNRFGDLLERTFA

[7] = system: Pseudomonas aeruginosa; experiment: Growth inhibition of Pseudomonas aeruginosa MPAO1 at >250 uM after 10 hrs; assay type: functional
[8] = system: Pseudomonas aeruginosa; experiment: Growth inhibition of Pseudomonas aeruginosa MPAO1 assessed as cell growth recovery up to 1500 uM after 10 hrs in presence of 40 uM of Fe(3)-pyoverdin relative to control; assay type: functional; parameters: scale not given: the % may be the effect or the level left
[9] = Decrease in heme oxygenase protein expression level in Pseudomonas aeruginosa MPAO1 at 0.5 mM measured every hr for 12 hrs in presence of 40 uM of Fe(3)-pyoverdin by Western blot analysis; assay type: functional
[10] = system: Pseudomonas aeruginosa; experiment: Growth inhibition of Pseudomonas aeruginosa MPAO1 assessed as induction of slower cell growth at 500 uM measured up to 6 hrs; assay type: functional
[11] = system: Pseudomonas aeruginosa; experiment: Growth inhibition of Pseudomonas aeruginosa MPAO1 at >=500 uM after 10 hrs in presence of 40 uM of Fe(3)-pyoverdin; assay type: functional
[12] = system: Pseudomonas aeruginosa; experiment: Growth inhibition of Pseudomonas aeruginosa MPAO1 at 500 uM measured up to 6 hrs in presence of 25 uM of hemoglobin; assay type: functional
[13] = Decrease in heme oxygenase protein expression level in Pseudomonas aeruginosa MPAO1 at 0.5 mM measured every hr for 12 hrs in presence of 25 uM of hemoglobin by Western blot analysis; assay type: functional
[14] = Decrease in heme oxygenase protein expression level in Pseudomonas aeruginosa MPAO1 at 0.5 mM measured after 6 hrs in presence of 40 uM of Fe(3)-pyoverdin by Western blot analysis; assay type: functional
[15] = system: Pseudomonas aeruginosa; experiment: Antimicrobial activity against Pseudomonas aeruginosa MPAO1 after 10 hrs; assay type: functional; conditions: MPAO1, 10 h

SMILES | logP [2] | solubility [3] | Kd [5] | Kd [6] | growth inhibition (GI) [7] | other results
O=[N+]([O-])c1ccc(O)c(/C=N/c2cccc(CO)c2)c1 | 2.71 |  |  |  |  | solubility [1]: Insoluble
CN(C)c1ccc(/C=N/NC(=N)N)cc1 | 3.77 | Soluble |  |  |  | Activity [4]: Active
CN(C)c1ccc(/C=N/n2nnnc2N)cc1 | 0.76 |  | 14.1 µM | 15.8 µM | Active | 
C(=N\Nc1nc(-c2cccnc2)cs1)/c1cccnc1 | 4.24 | Insoluble | 15.6 µM | 20.9 µM | Active | Activity [8]: 40%; Activity [9]: Active; Activity [10]: Active; growth inhibition (GI) [11]: Active; growth inhibition (GI) [12]: Active; Activity [13]: Active; Activity [14]: Active
O=C(O)CSc1ncnc2ccccc12 | 1.46 | Insoluble |  |  |  | MIC50 [15]: > 1000 µg/mL

— ChEMBL document CHEMBL3880431, “Heme oxygenase inhibitors, screening methods for heme oxygenase inhibitors and methods of use of heme oxygenase inhibitors for antimicrobial therapy” (2013)
